Results as given in paper PMC7395068, “The evolution of strategies to minimise the risk of human drug-induced liver injury (DILI) in drug discovery and development” (Archives of Toxicology, 2020).
Read-outs that look alike come from different tables or passages of the source.

Tests used:
HepG2 = system: HepG2; parameters: method as in Albrecht 2019; settings: In vitro Assay; ref Albrecht 2019; cited from earlier work
[1] = system: THLE or HepG2 cells, isolated mitochondria, BSEP; settings: cited from earlier work; for Partition Hybrid HRM Score / Ro2 Hybrid HRM Score: In vitro Assay, ref Aleo 2019; for Partition Hybrid HRM Score ≥4, Aleo (2019) / Partition Hybrid HRM Score ≥8, Aleo (2019) / Rule of Two hybrid HRM Score ≥3, Aleo (2019) / Rule of Two hybrid HRM Score ≥8, Aleo (2019): Modeled in vitro assays (cytotoxicity, mitochondrial dysfunction, BSEP), ref Aleo et al. 2019
PHH [2] = settings: In vitro Assay; ref Albrecht 2019; cited from earlier work
hLiMTs [3] = test: Combined HCI (HCS) and cellular ATP 3D assay in hLiMTs; settings: for AC50 / minimal effective concentration: Homo sapiens; for hLiMTs <25x Avg Cmax ATP / hLiMTs <100x Avg Cmaxu ATP: ATP endpoint; for hLiMTs <25x Avg Cmax ATP / hLiMTs <25x Avg Cmax HCS / hLiMTs <25x Avg Cmax All: cut-off <25x Avg Cmax; for hLiMTs <100x Avg Cmaxu ATP / hLiMTs <100x Avg Cmaxu HCS / hLiMTs <100x Avg Cmaxu All: cut-off <100x Avg Cmaxu; for hLiMTs <25x Avg Cmax HCS / hLiMTs <100x Avg Cmaxu HCS: HCS endpoints; for hLiMTs <25x Avg Cmax All: all endpoints (ATP and HCS); for hLiMTs Cmax max All / hLiMTs Cmax min All / hLiMTs <10 uM All / hLiMTs <100x Avg Cmaxu All: all endpoints; for hLiMTs Cmax max All: Cmax max used; for hLiMTs Cmax min All: Cmax min used; for hLiMTs <10 uM All: cut-off <10 uM
[4] = Plasma free fraction (fu) and unbound Cmax (Cmax,u); assay type: in vitro ADME, human; settings: unbound plasma Cmax
[5] = system: THLE-Null and THLE-3A4 cells; settings: In vitro Assay; ref Gustafsson 2014; cited from earlier work
hLiMTs [6] = settings: cited from earlier work; for hLiMTs ATP <100uM: In vitro Assay, ref Proctor 2017; for hLiMTs/100uM, Proctor (2017): ATP, IC50 threshold 100 µM, ref Proctor et al. 2017
HepG2 cells [7] = settings: In vitro Assay; ref Persson 2013; cited from earlier work
PHH [8] = settings: cited from earlier work; for PHH/100uM, Proctor (2017): 2D PHH, ATP, IC50 threshold 100 µM, ref Proctor et al. 2017; for PHH ATP <100uM: In vitro Assay, ref Proctor 2017
[9] = system: HepG2 cells, primary human hepatocytes; settings: In vitro Assay; ref Garside 2014; cited from earlier work
[10] = plasma free fraction; cited from earlier work
[11] = read-out: Human plasma Cmax; total plasma Cmax.tot, median of 9 literature references; cited from earlier work
[12] = system: isolated mouse liver mitochondria; settings: In vitro Assay; ref Porceddu 2012; cited from earlier work
HepaRG spheroids = test: Combined HCI (HCS) and cellular ATP 3D assay in HepaRG spheroids; settings: for HepaRG <25x Avg Cmax ATP / HepaRG <100x Avg Cmaxu ATP: ATP endpoint; for HepaRG <25x Avg Cmax ATP / HepaRG <25x Avg Cmax HCS / HepaRG <25x Avg Cmax All: cut-off <25x Avg Cmax; for HepaRG <100x Avg Cmaxu ATP / HepaRG <100x Avg Cmaxu HCS / HepaRG <100x Avg Cmaxu All: cut-off <100x Avg Cmaxu; for HepaRG <25x Avg Cmax HCS / HepaRG <100x Avg Cmaxu HCS: HCS endpoints; for HepaRG <25x Avg Cmax All: all endpoints (ATP and HCS); for HepaRG Cmax max All / HepaRG Cmax min All / HepaRG <10 uM All / HepaRG <100x Avg Cmaxu All: all endpoints; for HepaRG Cmax max All: Cmax max used; for HepaRG Cmax min All: Cmax min used; for HepaRG <10 uM All: cut-off <10 uM; for AC50 / minimal effective concentration: Homo sapiens; for HepaRG <25x Avg Cmax ATP / HepaRG <100x Avg Cmaxu ATP / HepaRG <25x Avg Cmax HCS / HepaRG <100x Avg Cmaxu HCS / HepaRG <25x Avg Cmax All / HepaRG Cmax max All / HepaRG Cmax min All / HepaRG <10 uM All / HepaRG <100x Avg Cmaxu All / AC50 / minimal effective concentration: HepaRG
HepG2 cells [13] = settings: cited from earlier work
[14] = cited from earlier work
[15] = cited from earlier work; remark: listed apart in the source
PHH spheroids = settings: cited from earlier work
[16] = Microtissue model structural based (HCI), combined HCS and ATP, MEC < 25 × Cmax.tot cut-off

CCCC(CCC)C(=O)O [valproic acid]
Cytotoxicity HepG2 48 hrs (HepG2): +VE
Partition Hybrid HRM Score [1]: +VE
Ro2 Hybrid HRM Score [1]: +VE
Partition Hybrid HRM Score ≥4, Aleo (2019) [1]: +VE (Partition Hybrid HRM Score ≥4)
Partition Hybrid HRM Score ≥8, Aleo (2019) [1]: +VE (Partition Hybrid HRM Score ≥8)
Rule of Two hybrid HRM Score ≥3, Aleo (2019) [1]: +VE (Rule of Two hybrid HRM Score ≥3)
Rule of Two hybrid HRM Score ≥8, Aleo (2019) [1]: -VE
Cytotoxicity PHH 48 hrs (PHH [2]): +VE
AC50 (hLiMTs [3]; read-out: ATP endpoint AC50): 7080 µM
minimal effective concentration (hLiMTs [3]; read-out: ATP endpoint MEC): 6220 µM
minimal effective concentration (hLiMTs [3]; read-out: HCS endpoint MEC): 1600 µM
hLiMTs <25x Avg Cmax ATP (hLiMTs [3]): +ve
hLiMTs <100x Avg Cmaxu ATP (hLiMTs [3]): -ve
hLiMTs <25x Avg Cmax HCS (hLiMTs [3]): +ve
hLiMTs <100x Avg Cmaxu HCS (hLiMTs [3]): +ve (<100x Avg Cmaxu)
hLiMTs <25x Avg Cmax All (hLiMTs [3]): +ve
hLiMTs Cmax max All (hLiMTs [3]): +ve
hLiMTs Cmax min All (hLiMTs [3]): +ve
hLiMTs <10 uM All (hLiMTs [3]): -ve
hLiMTs <100x Avg Cmaxu All (hLiMTs [3]): +ve (<100x Avg Cmaxu)
Human plasma Cmax,u [4]: 55.474 µM
THLE-Null [5]: -VE
hLiMTs ATP <100uM (hLiMTs [6]): -VE
hLiMTs/100uM, Proctor (2017) (hLiMTs [6]): -VE
Cluser analysis (HepG2 cells [7]): -VE
Structural based (HCI) (HepG2 cells [7]): -VE
PHH/100uM, Proctor (2017) (PHH [8]): -VE
PHH ATP <100uM (PHH [8]): -VE
Cluster 1-6 +VE Assay [9]: +VE
fu [10]: 0.080
Cmax [11]: 693 µM
in vitro data EC2<=1x Cmax [12]: +VE
in vitro data EC20<=2uM [12]: -VE
HepaRG <25x Avg Cmax ATP (HepaRG spheroids): +ve
HepaRG <100x Avg Cmaxu ATP (HepaRG spheroids): +ve (<100x Avg Cmaxu)
HepaRG <25x Avg Cmax HCS (HepaRG spheroids): +ve
HepaRG <100x Avg Cmaxu HCS (HepaRG spheroids): +ve (<100x Avg Cmaxu)
HepaRG <25x Avg Cmax All (HepaRG spheroids): +ve
HepaRG Cmax max All (HepaRG spheroids): +ve
HepaRG Cmax min All (HepaRG spheroids): +ve
HepaRG <10 uM All (HepaRG spheroids): -ve
HepaRG <100x Avg Cmaxu All (HepaRG spheroids): +ve (<100x Avg Cmaxu)
AC50 (HepaRG spheroids; read-out: ATP endpoint AC50): 41.3 µM
minimal effective concentration (HepaRG spheroids; read-out: ATP endpoint MEC): 12.3 µM
AC50 (HepaRG spheroids; read-out: HCS endpoint AC50): 148 µM
minimal effective concentration (HepaRG spheroids; read-out: HCS endpoint MEC): 45.6 µM

CN(C)CCC(c1ccc(Cl)cc1)c1ccccn1 (stereo not drawn) [chlorpheniramine]
Cytotoxicity HepG2 48 hrs (HepG2): -VE
Partition Hybrid HRM Score [1]: -VE
Ro2 Hybrid HRM Score [1]: -VE
Partition Hybrid HRM Score ≥4, Aleo (2019) [1]: -VE
Partition Hybrid HRM Score ≥8, Aleo (2019) [1]: -VE
Rule of Two hybrid HRM Score ≥3, Aleo (2019) [1]: -VE
Rule of Two hybrid HRM Score ≥8, Aleo (2019) [1]: -VE
Structural based (HCI) (HepG2 cells [13]; In vitro Assay, ref O'Brien 2006): +VE
DILI in vitro assay prediction, O'Brien (2006) (HepG2 cells [13]; Structural based (HCI), HepG2, ref O'Brien et al. 2006): -VE
Cytotoxicity PHH 48 hrs (PHH [2]): -VE
DILI severity category (Chen et al. [2016]) ([14]; LTKB DILIrank category, ref Chen et al. 2016): No
DILI severity category (Chen 2016) ([14]; human DILI classification, LTKB DILIrank, ref Chen et al. 2016): No
DILI severity category ([14]; human DILI severity, ref Chen et al.): No
DILI +VE (5-8), DILI -VE (-4) ([14]; ref Chen 2016): -VE
DILI severity category ([14]; ref Chen 2016): vNo-DILI-Concern
AC50 (hLiMTs [3]; read-out: ATP endpoint AC50): 30.9 µM
minimal effective concentration (hLiMTs [3]; read-out: ATP endpoint MEC): 10.7 µM
AC50 (hLiMTs [3]; read-out: HCS endpoint AC50): 98.5 µM
minimal effective concentration (hLiMTs [3]; read-out: HCS endpoint MEC): 66.6 µM
DILI prediction hLiMTs (HCS-MEC) (hLiMTs [3]; [16]): -VE
hLiMTs <25x Avg Cmax ATP (hLiMTs [3]): -ve
hLiMTs <100x Avg Cmaxu ATP (hLiMTs [3]): -ve
hLiMTs <25x Avg Cmax HCS (hLiMTs [3]): -ve
hLiMTs <100x Avg Cmaxu HCS (hLiMTs [3]): -ve
hLiMTs <25x Avg Cmax All (hLiMTs [3]): -ve
hLiMTs Cmax max All (hLiMTs [3]): -ve
hLiMTs Cmax min All (hLiMTs [3]): -ve
hLiMTs <10 uM All (hLiMTs [3]): -ve
hLiMTs <100x Avg Cmaxu All (hLiMTs [3]): -ve
Human plasma Cmax,u [4]: 0.101 µM
hLiMTs ATP <100uM (hLiMTs [6]): +VE (IC50 threshold of 100 µM)
hLiMTs/100uM, Proctor (2017) (hLiMTs [6]): +VE (IC50 threshold of 100 µM)
PHH/100uM, Proctor (2017) (PHH [8]): -VE
PHH ATP <100uM (PHH [8]): -VE
Assigned DILI category ([15]; Chen et al. 2016 or literature alignment, ref Chen et al. 2016): 1
In vivo DILI ([15]; ref Albrecht 2019): -VE
In vivo DILI ([15]; ref Aleo 2019): -VE
In vivo DILI ([15]; ref O'Brien 2006): -VE
In vivo DILI ([15]; ref Proctor 2017): +VE
In vivo DILI ([15]; ref Vorrink 2018): -VE
In vivo DILI ([15]; ref Xu 2008): +VE
fu [10]: 0.277
Cmax [11]: 0.366 µM
hLiMTs ATP <20 x Cmax (PHH spheroids; In vitro Assay, ref Vorrink 2018): -VE
DILI in vitro assay prediction, Vorrink (2018) (PHH spheroids; PHH spheroids, ATP, 14 days, IC20 < 20 × Cmax.tot, ref Vorrink et al. 2018): -VE
HepaRG <25x Avg Cmax ATP (HepaRG spheroids): -ve
HepaRG <100x Avg Cmaxu ATP (HepaRG spheroids): -ve
HepaRG <25x Avg Cmax HCS (HepaRG spheroids): -ve
HepaRG <100x Avg Cmaxu HCS (HepaRG spheroids): -ve
HepaRG <25x Avg Cmax All (HepaRG spheroids): -ve
HepaRG Cmax max All (HepaRG spheroids): -ve
HepaRG Cmax min All (HepaRG spheroids): -ve
HepaRG <10 uM All (HepaRG spheroids): -ve
HepaRG <100x Avg Cmaxu All (HepaRG spheroids): -ve
AC50 (HepaRG spheroids; read-out: ATP endpoint AC50): 129 µM
minimal effective concentration (HepaRG spheroids; read-out: ATP endpoint MEC): 120 µM
AC50 (HepaRG spheroids; read-out: HCS endpoint AC50): 119 µM
minimal effective concentration (HepaRG spheroids; read-out: HCS endpoint MEC): 14.3 µM
DILI prediction HepaRG spheroids (HCS-MEC) (HepaRG spheroids; [16]): -VE
